Data on one compound can be found in patent publication US20200000825A1, “METHODS AND COMPOSITIONS FOR TREATING AND PREVENTING VIRAL INFECTIONS” (ENTERIN LABORATORIES, INC., priority 2009, published 2020).

One series deals with T1, Human Oct 3 (Homo sapiens, UniProt O75751).
T1 sequence (O75751 1-556): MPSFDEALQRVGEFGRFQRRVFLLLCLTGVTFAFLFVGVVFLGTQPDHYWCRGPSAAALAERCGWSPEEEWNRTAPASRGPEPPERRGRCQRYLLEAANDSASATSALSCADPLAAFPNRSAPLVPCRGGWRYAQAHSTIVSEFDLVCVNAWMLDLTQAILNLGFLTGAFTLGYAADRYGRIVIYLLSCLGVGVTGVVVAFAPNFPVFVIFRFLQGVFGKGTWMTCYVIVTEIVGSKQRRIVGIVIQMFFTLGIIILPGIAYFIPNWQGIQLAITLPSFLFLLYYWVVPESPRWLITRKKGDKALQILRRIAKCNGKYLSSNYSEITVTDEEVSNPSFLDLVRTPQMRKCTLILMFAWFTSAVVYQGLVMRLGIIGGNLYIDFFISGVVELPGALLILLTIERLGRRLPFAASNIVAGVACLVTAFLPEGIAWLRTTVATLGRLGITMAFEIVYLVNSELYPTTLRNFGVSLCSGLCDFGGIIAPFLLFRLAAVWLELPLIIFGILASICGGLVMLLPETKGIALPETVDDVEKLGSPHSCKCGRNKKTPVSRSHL
Put plainly: MPP uptake inhibition (transport competition) assay in CHO cells over-expressing a human Oct transporter. Type of series: cell-based. Particulars: 100 μM aminosterol, radiolabelled MPP 0.01 μM, 1-second exposure. As to the method: (§1) This example determines whether squalamine is a substrate for the organic cation transporter (Oct). This determination employed a standard transport competition assay, described in the literature (Lips, Volk et al. 2005).
(§2) Chinese hamster ovary cells, previously engineered to over-express a specific human Oct transporter were used in the assay. In this example, the effect of a specific concentration of an amino sterol is determined on the intracellular uptake of radiolabelled 1-methyl-4-phenylpyridine (MPP) (at 0.01 μM), measured after a 1-second exposure. […] IC50 refers to the concentration of squalamine or 1436 required to inhibit MPP uptake by 50%. Table 1 below describes the affinity of squalamine and Amino sterol 1436 for human organic cation transporters (Human Oct 1, Human Oct 2, and Human Oct 3) based upon the MPP uptake inhibition assay.

A further series addresses T2, Human Oct 1 (Homo sapiens, UniProt O15245).
T2 sequence (O15245 1-554): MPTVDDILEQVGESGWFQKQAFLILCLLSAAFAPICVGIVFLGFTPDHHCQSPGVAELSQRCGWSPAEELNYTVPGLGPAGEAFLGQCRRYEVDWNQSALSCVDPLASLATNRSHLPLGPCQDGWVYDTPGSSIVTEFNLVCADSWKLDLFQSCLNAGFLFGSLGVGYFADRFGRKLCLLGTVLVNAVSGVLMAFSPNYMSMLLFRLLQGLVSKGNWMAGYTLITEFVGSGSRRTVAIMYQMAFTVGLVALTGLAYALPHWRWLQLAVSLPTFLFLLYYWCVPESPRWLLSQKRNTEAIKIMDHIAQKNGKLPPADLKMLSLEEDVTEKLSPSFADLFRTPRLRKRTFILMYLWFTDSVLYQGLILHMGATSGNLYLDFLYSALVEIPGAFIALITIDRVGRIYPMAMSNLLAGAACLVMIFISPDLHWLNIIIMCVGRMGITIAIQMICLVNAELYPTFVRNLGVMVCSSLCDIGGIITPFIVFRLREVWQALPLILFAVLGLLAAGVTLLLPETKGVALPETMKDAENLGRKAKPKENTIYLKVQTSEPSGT
The series is described as above. Type of series: cell-based. As to the method: as §1, §2

For a further series, the target named is T3, Human Oct 2 (Homo sapiens, UniProt O15244).
T3 sequence (O15244 1-555): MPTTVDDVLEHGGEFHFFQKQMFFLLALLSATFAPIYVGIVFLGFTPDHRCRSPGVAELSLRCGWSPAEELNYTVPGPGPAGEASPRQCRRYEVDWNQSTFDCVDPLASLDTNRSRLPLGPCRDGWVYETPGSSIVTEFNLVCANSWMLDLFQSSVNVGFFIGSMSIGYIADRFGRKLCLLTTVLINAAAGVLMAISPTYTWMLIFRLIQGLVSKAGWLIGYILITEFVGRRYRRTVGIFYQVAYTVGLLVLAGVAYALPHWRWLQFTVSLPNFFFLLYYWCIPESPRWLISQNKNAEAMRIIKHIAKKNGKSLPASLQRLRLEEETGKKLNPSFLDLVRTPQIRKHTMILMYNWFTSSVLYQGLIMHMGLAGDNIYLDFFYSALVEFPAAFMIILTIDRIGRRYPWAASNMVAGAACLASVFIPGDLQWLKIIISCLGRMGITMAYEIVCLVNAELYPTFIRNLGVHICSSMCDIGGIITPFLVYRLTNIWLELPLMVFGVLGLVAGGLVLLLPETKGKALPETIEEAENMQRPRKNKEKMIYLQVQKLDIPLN
The series is described as above. Type of series: cell-based. As to the method:
as §1, §2

Another series deals with HUVECs. The series is described as follows: Thrombin induced stress fiber formation in endothelial cells. It counts as cell-based, human. Particulars: aminosterol 20 μM, thrombin 20 ng/ml, 2 hours. As to the method:
The basic methods have been published (Williams, […] et al. 2001). HUVECs were grown on fibronectin-covered coverslips in EGM medium. […] Following a rinse, the cells were exposed to a 1:400 dilution of an FITC-goat antimurine antibody and 250 ng/ml TRITC phalloidin. The stained coverslips were visualized by fluorescence microscopy.

A further series has as its system RAW264.7 cell line. Particulars: squalamine 80 μM, 30 minutes; cited from earlier work.
Series [1] deals with human Hepatitis Delta virus. Put plainly: Hepatitis Delta virus replication in primary human hepatocytes, PCR (Example 13). Type of series: cell-based. How it is done:
Primary human hepatocytes were established in a 96 well microtiter plate. Squalamine was then added at concentrations of 20 or 60 μg/ml followed by an inoculum of Hep D virus, and then in culture for 3 hours, after which fresh medium was introduced, and the cells maintained in culture for 7 days. Viral growth was measured by PCR using viral specific primers and normalized to the total RNA extracted from each corresponding well.

The subject of series [2] is Eastern Equine Encephalitis Virus. Type of series: in vivo, hamsters (Syrian golden). Particulars: 10 mg/kg/day s.c.
Series [3] relates to Human umbilical endothelial cells. Put plainly: Kinetics of uptake of 3H-labelled aminosterol into endothelial cells. Particulars: for Uptake into endothelial cells: 1 μg/ml 3H-aminosterol.
Where [4] appears, read: 100 μM aminosterol, radiolabelled MPP 0.01 μM, 1-second exposure.
The mark [5] stands for this setting: read-out: IC50 (concentration required to inhibit MPP uptake by 50%).

Take `CC(C)[C@@H](CC[C@@H](C)[C@H]1CC[C@H]2[C@@H]3[C@H](O)C[C@H]4C[C@@H](NCCCNCCCCN)CC[C@]4(C)[C@H]3CC[C@]12C)OS(=O)(=O)O` [Squalamine, squalamine]: the “% Inhibition of MPP uptake caused by 100 μM” value at Human Oct 3 is recorded as 60%; on Human Oct 1 (setting [4]), 25%; at Human Oct 2 (setting [4]) it was 40%. Also, the IC50 is 34 µM on Human Oct 1 (setting [5]) and 50 µM on Human Oct 2 (setting [5]). In addition, the entries for the “Disruption of thrombin induced stress fiber formation” value in the series on HUVECs and in the series with HUVECs (listed as squalamine) were “Yes” and “disrupt thrombin induced stress fiber formation”, respectively. The “Localization of Lact-C2 probe” value with RAW264.7 cell line is reported as “did not alter the localization”. Moreover, the “Localization of R-pre probe” value in the series on RAW264.7 cell line is “displaced from its residence on the plasma membrane”. Further, the “Inhibition of viral production” value in series [1] (20 μg/ml, added during initial stages of infection) worked out at 90%. Moreover, in series [1] (60 μg/ml, primary human hepatocytes), the Cytotoxicity in vitro entry is recorded as “cytotoxic”. The “Hamsters still alive at the end of treatment” value in series [2] (-24 h to 6 days after infection) is listed as 6/10. Besides, the “Plasma concentration of virus, lower than vehicle” value in series [2] (first 3 days post infection) was “about 100 fold”. Also, the “Uptake into endothelial cells” value in series [3] (5 min) is given as 250 Molecules/cell (×10^−6); in series [3] (30 min), 400 Molecules/cell (×10^−6); in series [3] (60 min) it was 500 Molecules/cell (×10^−6); in series [3] (120 min), 500 Molecules/cell (×10^−6); in series [3] (180 min) it was 600 Molecules/cell (×10^−6). Moreover, the “Entry into the HUVEC relative to Aminosterol 1436” value in series [3] (squalamine versus Aminosterol 1436) is “over 2 orders of magnitude”.
